Results taken from patent US9326506B2, “Preparation method, agricultural composition and applications of natural brassinolide analogs” (CHENGDU NEWSUN CROPSCIENCE CO., LTD, priority 2012, dated 2016).

System: rice
Assay: Low temperature assay on rice seedlings
Format: in vivo
Protocol: According to a low temperature assay, we measured parameters including plant height, number of leaf, area of leaf, number of tiller, weight of root at low temperature to completely determine effects of the natural brassinolide analogues on the resistance to low temperature of a plant.
The natural brassinolide analogues, BR1, BR2, BR3, BR4, BR5 and BR6, used herein, were those prepared by the method of Example 1. Respectively the analogues were dissolved into 95% (V/V) ethanol solution, and then diluted with pure water to 1 mg/L, 0.1 mg/L, 0.01 mg/L, 0.001 mg/L and 0.0001 mg/L. In addition, pure water was used as a control.
After rice seeds were disinfected by using 5% sodium hypochlorite solution treatment, they were rinsed with distilled water until their pH>7, placed into a petri dish in a dark incubator, and cultured by using water at 30° C.±2° C. for 9 days. Then respectively the nine-day-old etiolated seedlings of rice were immersed in the above solutions containing different concentrations of the natural brassinolide analogues or pure water, and cultured at the temperature of 1° C., 2° C., 3° C., 4° C. and 5° C. for 24 hr. The parameters including plant height, area of leaf and weight of root after 3, 6, 9 and 12 days and number of leaf and number of tiller after 12 days were measured.

C=C(C(C)C)[C@@H](O)[C@H](O)[C@@H](C)[C@H]1CCC2C3COC(=O)C4C[C@H](O)[C@H](O)C[C@]4(C)C3CC[C@@]21C (stereo partly shown) [BR3]
Area of leaf (0.001 mg/l, 2 °C, 6 days): 11.6 cm^2 | Height (0.001 mg/l, 2 °C, 6 days): 7.1 cm | Weight of root (0.001 mg/l, 2 °C, 6 days): 3.0 g | Area of leaf (0.001 mg/l, 2 °C, 9 days): 12 cm^2 | Height (0.001 mg/l, 2 °C, 9 days): 7.1 cm | Weight of root (0.001 mg/l, 2 °C, 9 days): 3.1 g | Area of leaf (0.001 mg/l, 2 °C, 12 days): 13.1 cm^2 | Height (0.001 mg/l, 2 °C, 12 days): 7.3 cm | Number of leaf (0.001 mg/l, 2 °C, 12 days): 3 | Number of tiller (0.001 mg/l, 2 °C, 12 days): 3 | Weight of root (0.001 mg/l, 2 °C, 12 days): 3.9 g | Area of leaf (0.001 mg/l, 3 °C, 3 days): 10 cm^2 | Height (0.001 mg/l, 3 °C, 3 days): 7 cm | Weight of root (0.001 mg/l, 3 °C, 3 days): 2.5 g | Area of leaf (0.001 mg/l, 3 °C, 6 days): 12 cm^2 | Height (0.001 mg/l, 3 °C, 6 days): 7.2 cm | Weight of root (0.001 mg/l, 3 °C, 6 days): 2.7 g | Area of leaf (0.001 mg/l, 3 °C, 9 days): 12.2 cm^2 | Height (0.001 mg/l, 3 °C, 9 days): 7.3 cm | Weight of root (0.001 mg/l, 3 °C, 9 days): 2.9 g | Area of leaf (0.001 mg/l, 3 °C, 12 days): 13 cm^2 | Height (0.001 mg/l, 3 °C, 12 days): 7.4 cm | Number of leaf (0.001 mg/l, 3 °C, 12 days): 3 | Number of tiller (0.001 mg/l, 3 °C, 12 days): 2 | Weight of root (0.001 mg/l, 3 °C, 12 days): 2.9 g | Area of leaf (0.001 mg/l, 4 °C, 3 days): 10 cm^2 | Height (0.001 mg/l, 4 °C, 3 days): 7.1 cm | Weight of root (0.001 mg/l, 4 °C, 3 days): 2.5 g | Area of leaf (0.001 mg/l, 4 °C, 6 days): 12 cm^2 | Height (0.001 mg/l, 4 °C, 6 days): 7.3 cm | Weight of root (0.001 mg/l, 4 °C, 6 days): 2.6 g | Area of leaf (0.001 mg/l, 4 °C, 9 days): 13 cm^2 | Height (0.001 mg/l, 4 °C, 9 days): 7.4 cm | Weight of root (0.001 mg/l, 4 °C, 9 days): 2.9 g | Area of leaf (0.001 mg/l, 4 °C, 12 days): 13.1 cm^2 | Height (0.001 mg/l, 4 °C, 12 days): 7.5 cm | Number of leaf (0.001 mg/l, 4 °C, 12 days): 3 | Number of tiller (0.001 mg/l, 4 °C, 12 days): 2 | Weight of root (0.001 mg/l, 4 °C, 12 days): 2.9 g | Area of leaf (0.001 mg/l, 5 °C, 3 days): 10.2 cm^2 | Height (0.001 mg/l, 5 °C, 3 days): 7.2 cm | Weight of root (0.001 mg/l, 5 °C, 3 days): 2.8 g | Area of leaf (0.001 mg/l, 5 °C, 6 days): 14 cm^2 | Height (0.001 mg/l, 5 °C, 6 days): 7.5 cm | Weight of root (0.001 mg/l, 5 °C, 6 days): 2.9 g | Area of leaf (0.001 mg/l, 5 °C, 9 days): 15.4 cm^2 | Height (0.001 mg/l, 5 °C, 9 days): 7.8 cm | Weight of root (0.001 mg/l, 5 °C, 9 days): 3.0 g | Area of leaf (0.001 mg/l, 5 °C, 12 days): 16 cm^2 | Height (0.001 mg/l, 5 °C, 12 days): 7.9 cm | Number of leaf (0.001 mg/l, 5 °C, 12 days): 3 | Number of tiller (0.001 mg/l, 5 °C, 12 days): 3 | Weight of root (0.001 mg/l, 5 °C, 12 days): 3.7 g | Area of leaf (0.01 mg/l, 1 °C, 3 days): 10 cm^2 | Height (0.01 mg/l, 1 °C, 3 days): 7.0 cm | Weight of root (0.01 mg/l, 1 °C, 3 days): 2.8 g | Area of leaf (0.01 mg/l, 1 °C, 6 days): 11.6 cm^2 | Height (0.01 mg/l, 1 °C, 6 days): 7.1 cm | Weight of root (0.01 mg/l, 1 °C, 6 days): 3.0 g | Area of leaf (0.01 mg/l, 1 °C, 9 days): 12.4 cm^2 | Height (0.01 mg/l, 1 °C, 9 days): 7.4 cm | Weight of root (0.01 mg/l, 1 °C, 9 days): 3.1 g | Area of leaf (0.01 mg/l, 1 °C, 12 days): 13.6 cm^2 | Height (0.01 mg/l, 1 °C, 12 days): 7.5 cm | Number of leaf (0.01 mg/l, 1 °C, 12 days): 3 | Number of tiller (0.01 mg/l, 1 °C, 12 days): 3 | Weight of root (0.01 mg/l, 1 °C, 12 days): 3.9 g | Area of leaf (0.01 mg/l, 2 °C, 3 days): 10.1 cm^2 | Height (0.01 mg/l, 2 °C, 3 days): 7.1 cm | Weight of root (0.01 mg/l, 2 °C, 3 days): 2.8 g | Area of leaf (0.01 mg/l, 2 °C, 6 days): 11 cm^2 | Height (0.01 mg/l, 2 °C, 6 days): 7.2 cm | Weight of root (0.01 mg/l, 2 °C, 6 days): 3.1 g | Area of leaf (0.01 mg/l, 2 °C, 9 days): 12.5 cm^2 | Height (0.01 mg/l, 2 °C, 9 days): 7.4 cm | Weight of root (0.01 mg/l, 2 °C, 9 days): 3 g | Area of leaf (0.01 mg/l, 2 °C, 12 days): 13.4 cm^2 | Height (0.01 mg/l, 2 °C, 12 days): 7.5 cm | Number of leaf (0.01 mg/l, 2 °C, 12 days): 3 | Number of tiller (0.01 mg/l, 2 °C, 12 days): 3 | Weight of root (0.01 mg/l, 2 °C, 12 days): 3.2 g | Area of leaf (0.01 mg/l, 3 °C, 3 days): 10.2 cm^2 | Height (0.01 mg/l, 3 °C, 3 days): 7.1 cm | Weight of root (0.01 mg/l, 3 °C, 3 days): 2.5 g | Area of leaf (0.01 mg/l, 3 °C, 6 days): 12 cm^2 | Height (0.01 mg/l, 3 °C, 6 days): 7.3 cm | Weight of root (0.01 mg/l, 3 °C, 6 days): 2.7 g | Area of leaf (0.01 mg/l, 3 °C, 9 days): 12.1 cm^2
